Measured values as given in ChEMBL document CHEMBL1153475, “Novel indoline-based acyl-CoA: cholesterol acyltransferase inhibitor: Effects of introducing a methanesulfonamide group on physicochemical properties and biological activities” (Bioorg Med Chem, 2009).

How the values were obtained:
THP-1 [1] = test: Anti-foam cell formation activity in human THP1 cells assessed as inhibition of esterified cholesterol accumulation after 24 hrs in presence of Japanese white rabbit high-cholesterol serum; type: functional, cell-based; conditions: THP-1, 24 h
[2] = biological target: T1, Acyl-CoA:cholesterol acyltransferase (Oryctolagus cuniculus, UniProt Q95214); test: Inhibition of ACAT in Japanese White rabbit liver microsomes; parameters: species or system Microsome
T1 sequence (Q95214 whole entry): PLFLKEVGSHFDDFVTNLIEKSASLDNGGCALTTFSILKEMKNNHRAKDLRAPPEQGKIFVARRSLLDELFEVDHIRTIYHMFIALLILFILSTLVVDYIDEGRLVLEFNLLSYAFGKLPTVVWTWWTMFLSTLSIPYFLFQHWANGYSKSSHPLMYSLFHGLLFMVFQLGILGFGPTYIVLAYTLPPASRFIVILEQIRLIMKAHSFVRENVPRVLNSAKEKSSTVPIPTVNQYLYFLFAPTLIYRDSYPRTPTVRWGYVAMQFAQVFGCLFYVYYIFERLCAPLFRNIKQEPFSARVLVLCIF

[3] = Tmax in Sprague-Dawley rat at 10 mg/kg, po; type: ADME, organism-based; parameters: dose 10 mg/kg, route oral; conditions: in vivo
[4] = AUC (0 to 24 hrs) in Sprague-Dawley rat at 10 mg/kg, po; type: ADME, organism-based; parameters: time < 24 hr, dose 10 mg/kg, route oral; conditions: plasma
[5] = Cmax in Sprague-Dawley rat at 10 mg/kg, po; type: ADME, organism-based; parameters: dose 10 mg/kg, route oral; conditions: in vivo
[6] = Half life in Sprague-Dawley rat at 10 mg/kg, po; type: ADME, organism-based; parameters: dose 10 mg/kg, route oral; conditions: in vivo
[7] = Protein binding in rat plasma assessed as total and protein free fraction concentration at 10 ug/ML after 150 mins by ultracentrifugation method; type: ADME, cell-free; conditions: read-out: PPB (converted)
THP-1 [8] = test: Anti-foam cell formation activity in human THP1 cells assessed as inhibition of esterified cholesterol accumulation after 24 hrs in presence of albumin; type: functional
Mus musculus = test: Inhibition of hepatic cholesterol secretion in ICR mouse at 10 mg/kg, po after 3 hrs by enzymatic method; type: functional

Row | Structure (SMILES) | IC50 (THP-1 [1]) [nM] | IC50 [2] [nM] | further results
1 | CCCCN1CCc2c(C)c(NS(C)(=O)=O)c(C)c(NC(=O)C(C)(C)CC)c21 | 45 | 53 | –
2 | CCN1CCc2c(C)c(NS(C)(=O)=O)c(C)c(NC(=O)C(C)(C)C)c21 | – | – | Tmax [3]: 30 min; AUC(0-t) at 24 h [4]: 10800 ng·h/mL; Cmax [5]: 2900 ng/mL; half-life [6]: 155 min
3 | Cc1c2c(c(NC(=O)C(C)(C)C)c(C)c1NS(C)(=O)=O)N(C)CC2 | 7500 | 8800 | –
4 | CCOCCN1CCc2c(C)c(NS(C)(=O)=O)c(C)c(NC(=O)C(C)(C)C)c21 | 820 | 310 | –
5 | CCCN1CCCc2c(C)c(NS(C)(=O)=O)c(C)c(NC(=O)C(C)(C)C)c21 | 290 | 130 | –
6 | COCCN1CCc2c(C)c(NS(C)(=O)=O)c(C)c(NC(=O)C(C)(C)C)c21 | 1600 | 270 | –
7 | CCCCCCCCN1CCc2c(C)c(CC(=O)O)c(C)c(NC(=O)C(C)(C)C)c21 [PACTIMIBE] | – | – | fraction unbound at […], 10 ug/mL [7]: 0.021; Tmax [3]: 40.2 min; AUC(0-t) at 24 h [4]: 2800 ng·h/mL; fold change (FC) (THP-1 [8]): 10; Cmax [5]: 800 ng/mL; half-life [6]: 442 min; inhibition in vivo at 10 mg/kg (Mus musculus): 28%
8 | CCCCN1CCc2c(C)cc(C)c(NC(=O)C(C)(C)C)c21 | 1100 | 220 | –

The next lines start with results.

Row | IC50 (THP-1 [1]) [nM] | IC50 [2] [nM] | Structure (SMILES) | further results
9 | 290 | – | CCCCCCCCN1CCc2c(C)cc(C)c(NC(=O)C(C)(C)C)c21 | –
10 | 980 | 910 | CCCCCCCCCCN1CCc2c(C)c(CC(=O)O)c(C)c(NC(=O)C(C)(C)C)c21 | –
11 | 2000 | 2300 | CCCCCCCCN1CCc2c(C)c(CC(=O)O)c(C)c(NC(=O)C(C)(C)C)c21 | –
12 | 850 | 960 | CCCCCCCCCCCN1CCc2c(C)c(CC(=O)O)c(C)c(NC(=O)C(C)(C)C)c21 | –
